The text below walks through data of patent US8383642B2, “Spiropiperidine compounds” (Eli Lilly and Company, priority 2009, dated 2013).

One experiment concerns pancreatic islets. The experiment can be described thus: GDIS assay, primary rodent pancreatic islets of Langerhans. Conditions: different concentrations; compared to 11.2 mM glucose alone; 90 minutes; SD rat islets. It is filed as cell-based. The source says:
Because activation of GPR40 is known to result in insulin secretion which is dependent on high glucose concentrations, two separate assay systems (insulinoma cell line and primary rodent islets) are developed to further characterize compounds that are known to increase intracellular calcium in the GPR40 primary assay discussed above.
GDIS assays using primary rodent pancreatic islets of Langerhans are also used to characterize exemplified compounds. Pancreatic islets are isolated from male SD (Sprague Dawley) rats by collagenase digestion and Histopaque density gradient separation. The islets are cultured overnight in RPMI-1640 medium with GlutaMAXn (stabilized, dipeptide form of L-glutamine (Invitrogen catalog #61870-010)) to facilitate recovery from the isolation process. Insulin secretion is determined by a 90 minute incubation in EBSS (Earle's Balances Salt Solution) buffer in a 48-well plate. Briefly, islets are first preincubated in EBSS with 2.8 mM glucose for 30 min and are then transferred to a 48-well plate (four islets/well) containing 150 μl 2.8 mM glucose and incubated with 150 μl of EBSS with 2.8 or 11.2 mM glucose in the presence or absence of test compounds for 90 minutes. The buffer is removed from the wells at the end of the incubation and assayed for insulin levels using the Rat Insulin ELISA kit (Mercodia). […]

For another experiment, the target named is T1, PPARδ (Homo sapiens, UniProt Q03181).
T1 construct: made in house; host or cells: HEK293 (cell lysates)
T1 sequence (Q03181 1-441): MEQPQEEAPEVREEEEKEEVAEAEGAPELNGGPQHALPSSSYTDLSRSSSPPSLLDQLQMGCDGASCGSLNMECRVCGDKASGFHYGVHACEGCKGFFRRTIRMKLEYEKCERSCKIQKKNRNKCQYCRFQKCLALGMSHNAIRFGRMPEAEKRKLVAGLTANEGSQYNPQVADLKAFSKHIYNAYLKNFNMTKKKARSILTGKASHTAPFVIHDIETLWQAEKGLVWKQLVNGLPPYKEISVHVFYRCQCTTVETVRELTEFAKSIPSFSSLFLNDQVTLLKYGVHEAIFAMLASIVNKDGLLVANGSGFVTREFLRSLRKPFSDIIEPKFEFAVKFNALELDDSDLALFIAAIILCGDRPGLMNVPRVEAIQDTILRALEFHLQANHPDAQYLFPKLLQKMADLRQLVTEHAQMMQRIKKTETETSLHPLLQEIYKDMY
T1 sequence (P19793 1-462 partner): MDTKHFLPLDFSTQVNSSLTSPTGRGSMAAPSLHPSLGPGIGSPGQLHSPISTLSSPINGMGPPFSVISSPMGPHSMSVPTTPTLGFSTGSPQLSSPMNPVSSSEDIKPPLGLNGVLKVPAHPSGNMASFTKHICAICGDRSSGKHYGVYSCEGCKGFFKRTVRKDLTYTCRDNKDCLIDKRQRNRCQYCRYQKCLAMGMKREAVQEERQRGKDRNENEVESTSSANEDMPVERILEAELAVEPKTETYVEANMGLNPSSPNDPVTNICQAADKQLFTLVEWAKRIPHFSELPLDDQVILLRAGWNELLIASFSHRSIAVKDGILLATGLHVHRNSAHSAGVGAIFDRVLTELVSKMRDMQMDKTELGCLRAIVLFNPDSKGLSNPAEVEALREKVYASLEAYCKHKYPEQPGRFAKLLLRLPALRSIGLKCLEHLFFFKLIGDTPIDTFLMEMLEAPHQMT
Kind of experiment: PPARδ binding assay (SPA). Conditions: concentrations up to 10 μM. As for the experimental part:
Because GPR40 is known to be activated by ligands to PPARγ exemplified compounds are examined in PPARα, PPARδ, and PPARγ binding and functional assays to determine the selectivity of exemplified compounds for GPR40. Compounds exemplified herein are tested essentially as described below for PPAR binding and generally have binding values greater than 1000 nM with 10 μM concentrations of test compound and are thus considered negative for PPAR activity.
Binding affinities of compounds for the PPAR α, δ, and γ receptors are assessed using Scintillation Proximity Assay (SPA) technology. Biotinylated oligonucleotide Direct Repeat 2 (DR2) is used for binding the receptors to Yttrium silicate streptavidin-coated SPA beads. […] Non-specific binding is determined in the presence of 10,000 nM of the unlabeled PPAR α/δ dual agonist reference compound for the alpha and delta receptor assays and the PPARγ agonist reference compound for the gamma receptor assay. The binding reaction (100 μl per well in a 96 well [Costar 3632] plate) is incubated for 10 h and counted disintegration per minutes (dpm) on a Wallac Microbeta. Receptor binding affinity (IC50) for the compounds is determined by fitting an 11 point concentration-response curve with a 4-parameter logistic equation. Ki, is determined from the IC50 using the Cheng-Prussoff equation and Kd determined by saturation binding. […]

Consider `CC#C[C@@H](CC(=O)O)c1ccc(OCc2ccc(CN3CCC4(C=Cc5ccccc54)CC3)cc2)cc1` [Example 1, (3S)-3-(4-{[4-(1′H-Spiro[indene-1,4′-piperidin]-1′-ylmethyl)benzyl]oxy}phenyl)hex-4-ynoic acid], for which the increase in insulin in the experiment on pancreatic islets is given as 2- to 4 fold. Moreover, the binding detected result on PPARδ is “no binding is detected”.
